Laboratory results reported in patent US12065445B2, “CDK2 inhibitors and methods of using the same” (Cedilla Therapeutics, Inc., priority 2021, dated 2024).

Experiments:
Kuramochi cells = test: BrdU Cell Proliferation Assay; assay type: cell-based; details: read-out: BrdU - KURAMOCHI.1: IC50
Summary of the method: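 Kuramochi cells were seeded at 2,000 cells/well, adhered overnight, then treated with a 10-point, 3-fold compound dilution series for 4 days. Proliferation was measured by a 1-hour BrdU pulse, anti-BrdU peroxidase colorimetric ELISA and 450 nm absorbance. Values were background-subtracted and normalized to DMSO wells.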

[1] = tested on: Kuramochi cells labeled with mApple-H2B; test: IncuCyte Cell Proliferation Assay; assay type: cell-based; details: 72 h
Summary of the method: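 Cells imaged at 0 and 72 h after compound treatment (10 points, ½ log dilution, 20 μM top), with fluorescent nuclei counted. Fold change in count was normalized to DMSO wells and fitted to dose-response curves to give GI50.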

| SMILES | IC50 (Kuramochi cells) | IC50 [1] |
| --- | --- | --- |
| CNC(=O)[C@@H](NC(=O)[C@@H]1CN(C(=O)c2sc(Cl)nc2Cl)CC12CN(C(=O)[C@H]1CC1(C)C)C2)[C@@H](C)OCC1CCCCC1 [I-232A] | 0.5 to 5 µM | 0.5 to 5 µM |
| CNC(=O)[C@@H](NC(=O)[C@@H]1CN(C(=O)c2nncs2)CC12CN(C(=O)[C@H]1CC1(C)C)C2)[C@@H](C)OCC1CCCCC1 [I-246] | 0.5 to 5 µM | 5 to 20 µM |
| CNC(=O)[C@@H](NC(=O)[C@@H]1CN(C(=O)c2cnn(Cc3ccccc3)c2)CC12CN(C(=O)[C@H]1CC1(C)C)C2)[C@@H](C)OCC1C[C@@H](C)C[C@@H](C)C1 (stereo partly drawn) [I-249] | 0.5 to 5 µM | 0.5 to 5 µM |
| Cc1ccc(CNC(=O)[C@@H]2CN(C(=O)c3cnn(Cc4ccccc4)c3)CC23CN(C(=O)[C@H]2CC2(C)C)C3)nn1 [I-252] | 5 to 10 µM | 5 to 20 µM |
| CC1(C)C[C@@H]1C(=O)N1CC2(CN(C(=O)c3cnn(Cc4ccccc4)c3)C[C@H]2C(=O)N2CCN(CC3CCCCC3)C(=O)C2)C1 [I-253] | 5 to 10 µM | 5 to 20 µM |
| CNC(=O)[C@@H](NC(=O)C1CN(C(=O)c2cnn(Cc3ccccc3)c2)CC12CN(C(=O)[C@H]1CC1(C)C)C2)[C@@H](C)OCc1ccccn1 (stereo partly drawn) [I-257] | > 10 µM | > 20 µM |
| CN1CC[C@@H](NC(=O)[C@@H]2CN(C(=O)c3cnn(Cc4ccccc4)c3)CC23CN(C(=O)[C@H]2CC2(C)C)C3)C1=O [I-258] | > 10 µM | > 20 µM |
| CC1(C)C[C@@H]1C(=O)N1CC2(CN(C(=O)c3cnn(Cc4ccccc4)c3)C[C@H]2C(=O)N[C@@H]2CCN(C3CC3)C2=O)C1 [I-259] | > 10 µM | > 20 µM |
| CNC(=O)[C@H](CO)NC(=O)C1CN(C(=O)c2cnn(Cc3ccccc3)c2)CC12CN(C(=O)[C@H]1CC1(C)C)C2 (stereo partly drawn) [I-260] | > 10 µM | > 20 µM |
| CNC(=O)[C@@H](CO)NC(=O)C1CN(C(=O)c2cnn(Cc3ccccc3)c2)CC12CN(C(=O)[C@H]1CC1(C)C)C2 (stereo partly drawn) [I-261] | > 10 µM | > 20 µM |
| CNC(=O)[C@@H](NC(=O)[C@@H]1CN(C(=O)c2cnn(Cc3ccccc3)c2)CC12CN(C(=O)[C@H]1CC1(C)C)C2)[C@@H](C)OCc1cccc(O)c1 [I-262] | > 10 µM | > 20 µM |
| CNC(=O)[C@@H](NC(=O)[C@@H]1CN(C(=O)c2cnn(Cc3ccccc3)c2)CC12CN(C(=O)[C@H]1CC1(C)C)C2)[C@@H](C)OCc1ccc(Br)cc1 [I-263] | 0.5 to 5 µM | 0.5 to 5 µM |
| Cc1cc(C(=O)N2CC(C(=O)N[C@H](C(=O)N3CCCCC3)[C@@H](C)OCC3CCCCC3)C3(C2)CN(C(=O)[C@H]2CC2(C)C)C3)[nH]n1 (stereo partly drawn) [I-264] | > 10 µM | > 20 µM |
| C[C@@H](OCC1CCCCC1)[C@H](NC(=O)C1CN(C(=O)C2CCC(=O)NC2)CC12CN(C(=O)[C@H]1CC1(C)C)C2)C(=O)N1CCCCC1 (stereo partly drawn) [I-265] | > 10 µM | > 20 µM |
| CNC(=O)[C@@H](NC(=O)[C@@H]1CN(C(=O)c2cnn(Cc3ccccc3)c2)CC12CN(C(=O)[C@H]1CC1(C)C)C2)[C@@H](C)N(C)CC1CCCCC1 [I-266] | > 10 µM | > 20 µM |
| CNC(=O)[C@@H](NC(=O)[C@@H]1CN(C(=O)c2cnn(Cc3ccccc3)c2)CC12CN(C(=O)NC(C)C)C2)[C@@H](C)OCC1CCCCC1 [I-267] | > 10 µM | > 20 µM |
| CNC(=O)[C@@H](NC(=O)[C@@H]1CN(C(=O)c2cnn(Cc3ccccc3)c2)CC12CN(C(=O)NC1CC1)C2)[C@@H](C)OCC1CCCCC1 [I-268, (S)-6-(1-benzyl-1H-pyrazole-4-carbonyl)-N8-((2S,3R)-3-(cyclohexylmethoxy)-1-(methylamino)-1-oxobutan-2-yl)-N2-cyclopropyl-2,6-diazaspiro[3.4]octane-2,8-dicarboxamide] | > 10 µM | > 20 µM |
| CNC(=O)[C@@H](NC(=O)[C@@H]1CN(C(=O)c2cnn(Cc3ccccc3)c2)CC12CN(C(=O)[C@H]1CC1(C)C)C2)[C@@H](C)NCC1CCCCC1 [I-269, (S)-6-(1-benzyl-1H-pyrazole-4-carbonyl)-N-((2S,3R)-3-((cyclohexylmethyl)amino)-1-(methylamino)-1-oxobutan-2-yl)-2-((S)-2,2-dimethylcyclopropane-1-carbonyl)-2,6-diazaspiro[3.4]octane-8-carboxamide] | > 10 µM | 5 to 20 µM |
| C[C@@H](OCC1CCCCC1)[C@H](NC(=O)[C@@H]1CN(C(=O)c2cnn(Cc3ccccc3)c2)CC12CN(C(=O)[C@H]1CC1(C)C)C2)C(=O)N1CC[C@@H]1CN [I-270] | > 10 µM | 5 to 20 µM |
| C[C@@H](OCC1CCCCC1)[C@@H](COC1CCC(F)(F)CC1)NC(=O)[C@@H]1CN(C(=O)c2cnn(Cc3ccccc3)c2)CC12CN(C(=O)[C@H]1CC1(C)C)C2 [I-271] | ≤ 0.5 µM | ≤ 0.5 µM |

| SMILES | IC50 (Kuramochi cells) | IC50 [1] |
| --- | --- | --- |
| CNC(=O)[C@@H](NC(=O)[C@@H]1CN(C(=O)c2cnn(Cc3ccccc3)c2)CC12CN(C(=O)[C@H]1CC1(C)C)C2)[C@@H](C)N(CC1CCCCC1)C(C)=O [I-273, (S)-6-(1-benzyl-1H-pyrazole-4-carbonyl)-N-((2S,3R)-3-(N-(cyclohexylmethyl)acetamido)-1-(methylamino)-1-oxobutan-2-yl)-2-((S)-2,2-dimethylcyclopropane-1-carbonyl)-2,6-diazaspiro[3.4]octane-8-carboxamide] | > 10 µM | > 20 µM |
| CNC(=O)[C@@H](NC(=O)[C@@H]1CN(C(=O)c2cnn(Cc3ccccc3)c2)CC12CN(C(=O)N(C)C(C)C)C2)[C@@H](C)OCC1CCCCC1 [I-274, (S)-6-(1-benzyl-1H-pyrazole-4-carbonyl)-N8-((2S,3R)-3-(cyclohexylmethoxy)-1-(methylamino)-1-oxobutan-2-yl)-N2-isopropyl-N2-methyl-2,6-diazaspiro[3.4]octane-2,8-dicarboxamide] | 5 to 10 µM | 5 to 20 µM |
| C[C@H](OC1CCN(C(=O)[C@@H]2CN(C(=O)c3cnn(Cc4ccccc4)c3)CC23CN(C(=O)[C@H]2CC2(C)C)C3)CC1)c1ccccc1 [I-275] | > 10 µM | > 20 µM |
| CNC(=O)[C@@H](NC(=O)[C@@H]1CN(C(=O)c2cnn(Cc3ccccc3)c2)CC12CN(C(=O)C(C)(C)C1CC1)C2)[C@@H](C)OCc1ccccc1 [I-276] | > 10 µM | > 20 µM |
| CNC(=O)[C@@H](NC(=O)[C@@H]1CN(C(=O)c2cnn(Cc3ccccc3)c2)CC12CN(C(=O)C(C)C1CC1)C2)[C@@H](C)OCc1ccccc1 (stereo partly drawn) [I-277] | > 10 µM | > 20 µM |
| Cc1ccc2[nH]c(CNC(=O)C3CN(C(=O)c4cnn(Cc5ccccc5)c4)CC34CN(C(=O)[C@H]3CC3(C)C)C4)nc2c1 (stereo partly drawn) [I-278] | > 10 µM | > 20 µM |
| CNC(=O)[C@@H](NC(=O)[C@@H]1CN(C(=O)c2cncs2)CC12CN(C(=O)[C@H]1CC1(C)C)C2)[C@@H](C)OC(C)C1CCCCC1 (stereo partly drawn) [I-279] | 0.5 to 5 µM | 0.5 to 5 µM |
| C[C@@H](OCc1ccccc1)[C@H](NC(=O)[C@@H]1CN(C(=O)c2cnn(Cc3ccccc3)c2)CC12CN(C(=O)[C@H]1CC1(C)C)C2)C(=O)N1CCC(F)(F)CC1 [I-280] | 0.5 to 5 µM | 0.5 to 5 µM |
| C[C@@H](OCC1CCCCC1)[C@H](NC(=O)[C@@H]1CN(C(=O)c2cnn(Cc3ccccc3)c2)CC12CN(C(=O)[C@H]1CC1(C)C)C2)C(C)(C)O [I-281] | 0.5 to 5 µM | ≤ 0.5 µM |
| C[C@@H](OCC1CCCCC1)[C@@H](COCC1CCCCC1)NC(=O)[C@@H]1CN(C(=O)c2cncs2)CC12CN(C(=O)[C@H]1CC1(C)C)C2 [I-282] | ≤ 0.5 µM | ≤ 0.5 µM |
| COC[C@H]1CCCN(C(=O)[C@@H](NC(=O)[C@@H]2CN(C(=O)c3cnn(Cc4ccccc4)c3)CC23CN(C(=O)[C@H]2CC2(C)C)C3)[C@@H](C)OC)C1 [I-283] | > 10 µM | > 20 µM |
| CC(O[C@H](C)[C@H](NC(=O)[C@@H]1CN(C(=O)c2cncs2)CC12CN(C(=O)[C@H]1CC1(C)C)C2)C(=O)N1CCCCC1)C1CCCCC1 (stereo partly drawn) [I-284, (8S)—N-((2S,3R)-3-(1-cyclohexylethoxy)-1-oxo-1-(piperidin-1-yl)butan-2-yl)-2-((S)-2,2-dimethylcyclopropane-1-carbonyl)-6-(thiazole-5-carbonyl)-2,6-diazaspiro[3.4]octane-8-carboxamide] | 0.5 to 5 µM | 0.5 to 5 µM |
| CC1(C)C[C@@H]1C(=O)N1CC2(CN(C(=O)c3cncs3)C[C@H]2C(=O)N[C@@H](COCC2CCCCC2)C(=O)N2CCCCC2)C1 [I-286] | 0.5 to 5 µM | 0.5 to 5 µM |
| C[C@@H](OCC1(C(F)(F)F)CC1)[C@H](NC(=O)[C@@H]1CN(C(=O)c2cncs2)CC12CN(C(=O)[C@H]1CC1(C)C)C2)C(=O)N1CCC(F)(F)CC1 [I-287] | > 10 µM | 5 to 20 µM |
| C[C@@H](OCC1CCOCC1)[C@H](NC(=O)[C@@H]1CN(C(=O)c2cncs2)CC12CN(C(=O)[C@H]1CC1(C)C)C2)C(=O)N1CCC(F)(F)CC1 [I-288] | > 10 µM | 5 to 20 µM |
| CNC(=O)[C@@H](NC(=O)[C@@H]1CN(C(=O)c2cncs2)CC12CN(C(=O)[C@H]1CC1(C)C)C2)[C@@H](C)OCC12CCC(CC1)CC2 [I-289] | ≤ 0.5 µM | ≤ 0.5 µM |
| CNC(=O)[C@@H](NC(=O)[C@@H]1CN(C(=O)c2cncs2)CC12CN(C(=O)[C@H]1CC1(C)C)C2)[C@@H](C)OC1CCCCC1 [I-290] | > 10 µM | 5 to 20 µM |
| CC1(C)C[C@@H]1C(=O)N1CC2(CN(C(=O)c3cncs3)C[C@@H]2C(=O)N[C@@H](COCC2CCCCC2)C(=O)N2CCCCC2)C1 [I-293] | > 10 µM | > 20 µM |
| CNC(=O)[C@@H](NC(=O)[C@@H]1CN(C(=O)c2cnn(Cc3ccccc3)c2)CC12CN(CC(=O)O)C2)[C@@H](C)OCC1CCCCC1 [I-294, 2-((S)-6-(1-benzyl-1H-pyrazole-4-carbonyl)-8-(((2S,3R)-3-(cyclohexylmethoxy)-1-(methylamino)-1-oxobutan-2-yl)carbamoyl)-2,6-diazaspiro[3.4]octan-2-yl)acetic acid] | > 10 µM | > 20 µM |
